“And” between values parts separate entries of the source, which are not always exact repeats. Equal entries are not always repeated. Inconclusive results and toxic doses are left out.
Tested on: L1210 leukemia ip in BDF1 mice, survival T/C
Assay: NCI In Vivo Anticancer Drug Screen. Data for tumor model L1210 Leukemia (intraperitoneal) in B6D2F1 (BDF1) mice
Settings: endpoint: mean survival time, higher = longer survival
Summary of the method: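 Tumor was transplanted into mice, which were then dosed with test compound or vehicle alone. Survival was recorded for each group, and the treated figure was expressed relative to the control figure.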

[1] = dose: 100.0 mg/kg/injection, schedule: Q04DX003 (ip), vehicle: Klucel (hydroxypropylcellulose) (HPC)
[2] = dose: 200.0 mg/kg/injection, schedule: Q04DX003 (ip), vehicle: Klucel (hydroxypropylcellulose) (HPC)
[3] = dose: 400.0 mg/kg/injection, schedule: Q04DX003 (ip), vehicle: Klucel (hydroxypropylcellulose) (HPC)
[4] = dose: 100.0 mg/kg/injection, schedule: Q01DX009 (ip), vehicle: Klucel (hydroxypropylcellulose) (HPC)
[5] = dose: 200.0 mg/kg/injection, schedule: Q01DX009 (ip), vehicle: Klucel (hydroxypropylcellulose) (HPC)
[6] = dose: 400.0 mg/kg/injection, schedule: Q01DX009 (ip), vehicle: Klucel (hydroxypropylcellulose) (HPC)
[7] = dose: 100.0 mg/kg/injection, schedule: Q04DX003 (ip), vehicle: saline with Tween-80
[8] = dose: 200.0 mg/kg/injection, schedule: Q04DX003 (ip), vehicle: saline with Tween-80
[9] = dose: 400.0 mg/kg/injection, schedule: Q04DX003 (ip), vehicle: saline with Tween-80
[10] = dose: 100.0 mg/kg/injection, schedule: Q01DX001 (ip), vehicle: saline
[11] = dose: 200.0 mg/kg/injection, schedule: Q01DX001 (ip), vehicle: saline
[12] = dose: 400.0 mg/kg/injection, schedule: Q01DX001 (ip), vehicle: saline
[13] = dose: 100.0 mg/kg/injection, schedule: Q04DX003 (ip), vehicle: saline
[14] = dose: 200.0 mg/kg/injection, schedule: Q04DX003 (ip), vehicle: saline
[15] = dose: 400.0 mg/kg/injection, schedule: Q04DX003 (ip), vehicle: saline

## C[N+](C)(C)c1ncnc2nc[nH]c12
dose: 22.5 mg/kg/injection, schedule: Q01DX Z (ip), vehicle: saline
  T/C: 112 % of control
dose: 31.0 mg/kg/injection, schedule: Q01DX005 (ip), vehicle: saline
  T/C: 112 % of control
dose: 31.0 mg/kg/injection, schedule: Q01DX009 (ip), vehicle: saline
  T/C: 120 % of control
dose: 45.0 mg/kg/injection, schedule: Q01DX Z (ip), vehicle: saline
  T/C: 110 % of control
dose: 53.0 mg/kg/injection, schedule: Q01DX Z (ip), vehicle: carboxymethylcellulose (CMC)
  T/C: 110 % of control
dose: 62.0 mg/kg/injection, schedule: Q01DX005 (ip), vehicle: saline
  T/C: 110 % of control
dose: 62.0 mg/kg/injection, schedule: Q01DX009 (oral), vehicle: saline
  T/C: 109 % of control
dose: 62.0 mg/kg/injection, schedule: Q01DX009 (sc), vehicle: saline
  T/C: 109 % of control
dose: 80.0 mg/kg/injection, schedule: Q01DX Z (ip), vehicle: carboxymethylcellulose (CMC)
  T/C: 118 % of control
dose: 100.0 mg/kg/injection, schedule: Q## X008 (ip), vehicle: saline
  T/C: 110 % of control
dose: 100.0 mg/kg/injection, schedule: Q## X024 (ip), vehicle: saline
  T/C: 115 % of control
dose: 120.0 mg/kg/injection, schedule: Q01DX Z (ip), vehicle: carboxymethylcellulose (CMC)
  T/C: 118 % of control
dose: 125.0 mg/kg/injection, schedule: Q01DX001 (ip), vehicle: saline
  T/C: 96 % of control
dose: 125.0 mg/kg/injection, schedule: Q01DX001 (oral), vehicle: saline
  T/C: 116 % of control
dose: 125.0 mg/kg/injection, schedule: Q01DX001 (sc), vehicle: saline
  T/C: 106 % of control
dose: 125.0 mg/kg/injection, schedule: Q01DX005 (ip), vehicle: saline
  T/C: 124 % of control
dose: 125.0 mg/kg/injection, schedule: Q01DX009 (sc), vehicle: saline
  T/C: 118 % of control
dose: 125.0 mg/kg/injection, schedule: Q## X003 (ip), vehicle: saline
  T/C: 108 % of control
dose: 180.0 mg/kg/injection, schedule: Q01DX Z (ip), vehicle: carboxymethylcellulose (CMC)
  T/C: 162 % of control
dose: 200.0 mg/kg/injection, schedule: Q## X008 (ip), vehicle: saline
  T/C: 109 % of control
dose: 250.0 mg/kg/injection, schedule: Q01DX001 (ip), vehicle: saline
  T/C: 107 % of control
dose: 250.0 mg/kg/injection, schedule: Q01DX001 (oral), vehicle: saline
  T/C: 110 % of control
dose: 250.0 mg/kg/injection, schedule: Q01DX001 (sc), vehicle: saline
  T/C: 109 % of control
dose: 250.0 mg/kg/injection, schedule: Q01DX009 (sc), vehicle: saline
  T/C: 123 % of control
dose: 250.0 mg/kg/injection, schedule: Q## X003 (ip), vehicle: saline
  T/C: 119 % of control
dose: 270.0 mg/kg/injection, schedule: Q01DX015 (ip), vehicle: saline
  T/C: 152 % of control
dose: 400.0 mg/kg/injection, schedule: Q## X008 (ip), vehicle: saline
  T/C: 120 % of control
dose: 500.0 mg/kg/injection, schedule: Q01DX001 (oral), vehicle: saline
  T/C: 112 % of control
dose: 800.0 mg/kg/injection, schedule: Q## X024 (ip), vehicle: saline
  T/C: 122 % of control
dose: 1000.0 mg/kg/injection, schedule: Q01DX001 (oral), vehicle: saline
  T/C: 124 % of control

## O=[N+]([O-])c1cccc2c1/C(=N/O)c1ccccc1-2
dose: 100.0 mg/kg/injection, schedule: Q01DX001 (ip), vehicle: carboxymethylcellulose (CMC)
  T/C: 101 % of control
dose: 200.0 mg/kg/injection, schedule: Q01DX001 (ip), vehicle: carboxymethylcellulose (CMC)
  T/C: 92 % of control
dose: 400.0 mg/kg/injection, schedule: Q01DX001 (ip), vehicle: carboxymethylcellulose (CMC)
  T/C: 98 % of control

## Cc1ccc(NCS(=O)(=O)O)cc1
dose: 25.0 mg/kg/injection, schedule: Q04DX003 (ip), vehicle: Klucel (hydroxypropylcellulose) (HPC)
  T/C: 106 % of control
dose: 50.0 mg/kg/injection, schedule: Q04DX003 (ip), vehicle: Klucel (hydroxypropylcellulose) (HPC)
  T/C: 103 % of control
[1]
  T/C: 95 % of control and 96 % of control
[2]
  T/C: 100 % of control
[3]
  T/C: 97 % of control

## CCOC(=O)N1C2C=CC(C2)N1C(=O)OCC
dose: 100.0 mg/kg/injection, schedule: Q04DX002 (sc), vehicle: olive oil, sesame oil, peanut oil
  T/C: 94 % of control
dose: 200.0 mg/kg/injection, schedule: Q04DX002 (sc), vehicle: olive oil, sesame oil, peanut oil
  T/C: 102 % of control
dose: 400.0 mg/kg/injection, schedule: Q04DX002 (sc), vehicle: olive oil, sesame oil, peanut oil
  T/C: 97 % of control

## c1ccc(CN2CCNCC2)cc1
dose: 6.25 mg/kg/injection, schedule: Q01DX009 (ip), vehicle: saline
  T/C: 93 % of control
dose: 12.5 mg/kg/injection, schedule: Q01DX009 (ip), vehicle: saline
  T/C: 93 % of control
dose: 25.0 mg/kg/injection, schedule: Q01DX009 (ip), vehicle: saline
  T/C: 94 % of control

## CC/C=C/c1cccc(OC)c1
[4]
  T/C: 102 % of control
[1]
  T/C: 105 % of control
[5]
  T/C: 96 % of control
[2]
  T/C: 110 % of control
[6]
  T/C: 95 % of control
[3]
  T/C: 96 % of control

## COc1cc(C(=O)NOCc2cccc(C(F)(F)F)c2)cc(OC)c1OC
[7]
  T/C: 98 % of control
[8]
  T/C: 98 % of control
[9]
  T/C: 101 % of control

## CN(C)C/C=C/COC(=O)C(C)(C)C
dose: 75.0 mg/kg/injection, schedule: Q01DX001 (ip), vehicle: saline
  T/C: 93 % of control
dose: 150.0 mg/kg/injection, schedule: Q01DX001 (ip), vehicle: saline
  T/C: 97 % of control
dose: 300.0 mg/kg/injection, schedule: Q01DX001 (ip), vehicle: saline
  T/C: 87 % of control

## CCCCCCOC(=O)CCC(=O)OCCCCCC
[4]
  T/C: 97 % of control
[1]
  T/C: 92 % of control
[5]
  T/C: 101 % of control
[2]
  T/C: 92 % of control
[6]
  T/C: 97 % of control
[3]
  T/C: 97 % of control

## Cn1cnc2[nH]c(Cl)nc(=S)c21
[10]
  T/C: 95 % of control
[11]
  T/C: 92 % of control
[12]
  T/C: 95 % of control

## COC1OCC(O)C(O)C1OS(C)(=O)=O (configuration not stated)
[10]
  T/C: 110 % of control
[11]
  T/C: 101 % of control
[12]
  T/C: 104 % of control

## CCOC(=O)CCCSCCCC(=O)OCC
dose: 100.0 mg/kg/injection, schedule: Q01DX009 (ip), vehicle: saline
  T/C: 111 % of control
[13]
  T/C: 111 % of control
dose: 200.0 mg/kg/injection, schedule: Q01DX009 (ip), vehicle: saline
  T/C: 101 % of control
[14]
  T/C: 98 % of control
dose: 400.0 mg/kg/injection, schedule: Q01DX009 (ip), vehicle: saline
  T/C: 110 % of control
[15]
  T/C: 88 % of control

## Nc1nc2ncnc(N)c2nc1-c1ccc(N(CCO)CCO)cc1
[10]
  T/C: 104 % of control
[11]
  T/C: 95 % of control
[12]
  T/C: 100 % of control

## Cc1ccc(C)c(Cn2cnc3c(=S)nc[nH]c32)c1
dose: 100.0 mg/kg/injection, schedule: Q04DX002 (ip), vehicle: Klucel (hydroxypropylcellulose) (HPC)
  T/C: 94 % of control
dose: 200.0 mg/kg/injection, schedule: Q04DX002 (ip), vehicle: Klucel (hydroxypropylcellulose) (HPC)
  T/C: 94 % of control
dose: 400.0 mg/kg/injection, schedule: Q04DX002 (ip), vehicle: Klucel (hydroxypropylcellulose) (HPC)
  T/C: 88 % of control

## CC(N)C(=O)NC(C(=O)O)C(C)C (configuration not stated)
dose: 100.0 mg/kg/injection, schedule: Q04DX002 (ip), vehicle: saline
  T/C: 101 % of control and 98 % of control
dose: 200.0 mg/kg/injection, schedule: Q04DX002 (ip), vehicle: saline
  T/C: 101 % of control and 95 % of control
dose: 400.0 mg/kg/injection, schedule: Q04DX002 (ip), vehicle: saline
  T/C: 96 % of control and 95 % of control

## CC(=O)NCCC(C)C
[13]
  T/C: 98 % of control
[14]
  T/C: 98 % of control
[15]
  T/C: 95 % of control

## O=C(c1cccc(C(=O)n2c3c(c4ccccc42)CCCC3)c1)n1c2c(c3ccccc31)CCCC2
dose: 100.0 mg/kg/injection, schedule: Q01DX009 (ip), vehicle: saline with Tween-80
  T/C: 90 % of control
[7]
  T/C: 95 % of control
dose: 200.0 mg/kg/injection, schedule: Q01DX009 (ip), vehicle: saline with Tween-80
  T/C: 90 % of control
[8]
  T/C: 98 % of control
dose: 400.0 mg/kg/injection, schedule: Q01DX009 (ip), vehicle: saline with Tween-80
  T/C: 94 % of control
[9]
  T/C: 88 % of control

Source: PubChem BioAssay AID248 (DTP/NCI, 2004)
